tested on: BteCAι; test: stopped-flow CO2 hydration assay (activation); type: biochemical, Burkholderia territorii; conditions: activation constant (not an association constant); CO2 substrate; 10 mM HEPES pH 7.5, 0.1 M NaClO4; 25 °C; activator
Excerpt: stopped-flow CO2 hydration assay (activation) on BteCAι

| SMILES | KA (μM)* / BteCAι^b [µM] |
| --- | --- |
| N[C@@H](Cc1cnc[nH]1)C(=O)O [compound 1, L-His] | 8.6 |
| N[C@H](Cc1c[nH]cn1)C(=O)O [compound 2, D-His] | 6.2 |
| N[C@H](Cc1ccccc1)C(=O)O [compound 4, D-Phe] | 9.4 |
| N[C@@H](Cc1ccc(O)c(O)c1)C(=O)O [compound 5, L-DOPA] | 4.3 |
| N[C@H](Cc1ccc(O)c(O)c1)C(=O)O [compound 6, D-DOPA] | 11.7 |
| N[C@@H](Cc1c[nH]c2ccccc12)C(=O)O [compound 7, L-Trp] | 10.2 |
| N[C@H](Cc1c[nH]c2ccccc12)C(=O)O [compound 8, D-Trp] | 6.1 |
| N[C@@H](Cc1ccc(O)cc1)C(=O)O [compound 9, L-Tyr] | 8.0 |
| N[C@H](Cc1ccc(O)cc1)C(=O)O [compound 10, D-Tyr] | 7.3 |
| Nc1ccc(C[C@H](N)C(=O)O)cc1 [compound 11, 4-H2N-L-Phe] | 6.9 |
| NCCc1c[nH]cn1 [compound 12, Histamine] | 6.0 |
| NCCc1ccc(O)c(O)c1 [compound 13, Dopamine] | 8.7 |
| NCCc1c[nH]c2ccc(O)cc12 [compound 14, Serotonin] | 13.3 |
| NCCN1CCNCC1 [compound 17, 1-(2-Aminoethyl)-piperazine] | 3.9 |
| NCCN1CCOCC1 [compound 18, 4-(2-Aminoethyl)-morpholine] | 12.0 |
| CNC[C@H](O)c1ccc(O)c(O)c1 [compound 19, L-Adrenaline] | 9.7 |
| N[C@@H](CC(=O)O)C(=O)O [compound 21, L-Asp] | 8.4 |
| N[C@H](CCC(=O)O)C(=O)O [compound 23, D-Glu] | 8.5 |
| NC(=O)CC[C@H](N)C(=O)O [compound 24, L-Gln] | 5.8 |

From article PMC8128165, “Effect of amino acids and amines on the activity of the recombinant ι-carbonic anhydrase from the Gram-negative bacterium Burkholderia territorii” (Journal of Enzyme Inhibition and Medicinal Chemistry, 2021)
